# In patent US20140193827A1 (TEVA PHARMACEUTICAL INDUSTRIES, LTD., priority 2013, published 2014):
# Test system: GA-primed murine splenocytes
# Assay: ANOVA-based pattern identification method
# Assay type: cell-based, mouse
# Text: We sought to identify probes matching specific patterns of expression across experimental conditions using a technique that referred to as the ANOVA-based Pattern Identification Method.
# To carry out the analysis in a general manner, we computed the 6 p-values required to do pairwise comparisons of all 4 conditions for all probes using the ANOVA1 function in MATLAB. We then identified sets of probes matching the desired pattern. In the example above, probes were identified as being only affected by PG if their 6 pairwise comparison pvalues matched the following pattern (pGA-PG<0.05, pPG-reference standard<0.05, pPG-Medium<0.05, pGAMedium>0.05, pGA-reference standard>0.05, preference standard-Medium>0.05).
# [1] = DOWN IN generic ONLY, group mean
substance,measurement,setting,value
glatiramer acetate [GA],PARP11 expression,[1],5.609
same,PAX6 expression,[1],5.641
same,PCSK2 expression,[1],5.653
same,PDK2 expression,[1],5.937
same,PHIP expression,[1],8.192
same,PMS1 expression,[1],5.806
same,PRICKLE2 expression,[1],5.859
same,PTP4A2 expression,[1],8.952
same,PTPN22 expression,[1],5.804
same,R3HDM1 expression,[1],6.229
same,RAB4A expression,[1],6.851
same,RAB6B expression,[1],5.767
same,RAB27A expression,[1],9.622
same,RBM18 expression,[1],7.292
same,RDH1 expression,[1],5.682
same,RGS19 expression,[1],6.584
same,RHBDF2 expression,[1],6.336
same,RNF17 expression,[1],5.538
same,RNF150 expression,[1],5.93
same,RPL32 expression,[1],13.81
same,RTN3 expression,[1],5.897
same,RgenericRIP1 expression,[1],5.935
same,SCNN1B expression,[1],5.616
same,SEC1 expression,[1],5.75
same,SEMA3E expression,[1],5.601
same,SH3BP2 expression,[1],10.95
same,SOX2 expression,[1],5.674
same,SPCS2 expression,[1],5.97
same,SPDYB expression,[1],5.641
same,SPN expression,[1],5.889
same,SPRR2K expression,[1],5.662
same,STAT4 expression,[1],5.836
same,SVNGR4 expression,[1],5.647
same,SYT10 expression,[1],5.717
same,TATDN3 expression,[1],5.694
same,TCFAP2C expression,[1],5.821
same,TDH expression,[1],5.601
same,TMEFF2 expression,[1],5.65
same,TMEM146 expression,[1],6.132
same,TMPO expression,[1],8.533
same,TRPM1 expression,[1],5.694
same,TRPV3 expression,[1],5.597
same,TSC1 expression,[1],5.984
same,TSSC1 expression,[1],7.729
same,TYKI expression,[1],7.673
same,UGDH expression,[1],5.86
same,UGT2A1 expression,[1],5.61
same,UTX expression,[1],9.817
same,V1RD9 expression,[1],5.697
same,ZAP70 expression,[1],7.106
same,ZBTB44 expression,[1],5.642
same,ZCCHC11 expression,[1],5.935
same,ZFP120 expression,[1],5.536
same,ZFP212 expression,[1],6.401
same,ZSCAN2 expression,[1],5.813
same,control_ILMN_1378612 expression,[1],5.7
same,control_ILMN_1378679 expression,[1],5.604
same,control_ILMN_1378774 expression,[1],5.707
same,control_ILMN_1378775 expression,[1],5.662
same,control_ILMN_1379152 expression,[1],5.629
same,control_ILMN_1379205 expression,[1],5.72
same,genericC expression,[1],5.676
same,USP47 expression,"DOWN IN generic ONLY, group mean, first USP47 line",6.068
same,USP47 expression,"DOWN IN generic ONLY, group mean, second USP47 line",6.377
same,1700025G04RIK expression level,UP IN GA AND REF ONLY,7.268
same,1700027N10RIK expression level,UP IN GA AND REF ONLY,6.448
same,1810013L24RIK expression level,UP IN GA AND REF ONLY,7.658
same,2310016C16RIK expression level,UP IN GA AND REF ONLY,5.823
same,2500002A22RIK expression level,UP IN GA AND REF ONLY,6.674
same,2610017G09RIK expression level,UP IN GA AND REF ONLY,5.839
same,2810008M24RIK expression level,UP IN GA AND REF ONLY,9.714
same,2810410P22RIK expression level,UP IN GA AND REF ONLY,7.979
same,3202002H23RIK expression level,UP IN GA AND REF ONLY,6.527
same,4930404F20RIK expression level,UP IN GA AND REF ONLY,6.759
same,4930422G04RIK expression level,UP IN GA AND REF ONLY,5.79
same,4930539E08RIK expression level,UP IN GA AND REF ONLY,6.255
same,4932413O14RIK expression level,UP IN GA AND REF ONLY,5.732
same,5830457O10RIK expression level,UP IN GA AND REF ONLY,6.825
same,8030402P03RIK expression level,UP IN GA AND REF ONLY,7.776
same,9430077D24RIK expression level,UP IN GA AND REF ONLY,7.091
same,A630098G22RIK expression level,UP IN GA AND REF ONLY,7.124
same,A830083H19RIK expression level,UP IN GA AND REF ONLY,7.635
same,A930014D08RIK expression level,UP IN GA AND REF ONLY,5.703
same,ACTN4 expression level,UP IN GA AND REF ONLY,6.609
same,ALS2CL expression level,UP IN GA AND REF ONLY,7.393
same,AP1B1 expression level,UP IN GA AND REF ONLY,10.95
same,ARHGAP25 expression level,UP IN GA AND REF ONLY,10.16
same,ARL1 expression level,UP IN GA AND REF ONLY,9.913
same,ARL5A expression level,UP IN GA AND REF ONLY,8.028
same,BAT2D expression level,UP IN GA AND REF ONLY,5.932
same,BAZ1B expression level,UP IN GA AND REF ONLY,5.676
same,BCL11B expression level,UP IN GA AND REF ONLY,7.609
same,C130079K02RIK expression level,UP IN GA AND REF ONLY,7.532
same,C920025C15RIK expression level,UP IN GA AND REF ONLY,6.929
same,CBFB expression level,UP IN GA AND REF ONLY,6.648
same,CCR4 expression level,UP IN GA AND REF ONLY,5.821
same,CD226 expression level,UP IN GA AND REF ONLY,6.995
same,CHIC2 expression level,UP IN GA AND REF ONLY,8.484
same,CLCN3 expression level,UP IN GA AND REF ONLY,8.431
same,COX7A1 expression level,UP IN GA AND REF ONLY,7.161
same,CSF1 expression level,UP IN GA AND REF ONLY,5.383
same,CXCR6 expression level,UP IN GA AND REF ONLY,6.834
same,CYB5 expression level,UP IN GA AND REF ONLY,11.21
same,D4ERTD22E expression level,UP IN GA AND REF ONLY,11.37
same,D6WSU163E expression level,UP IN GA AND REF ONLY,6.582
same,D230021E06RIK expression level,UP IN GA AND REF ONLY,7.605
same,D630011N09RIK expression level,UP IN GA AND REF ONLY,5.625
same,D630022O22RIK expression level,UP IN GA AND REF ONLY,6.33
same,DCK expression level,UP IN GA AND REF ONLY,6.716
same,DCUN1D5 expression level,UP IN GA AND REF ONLY,9.535
same,DHX32 expression level,UP IN GA AND REF ONLY,8.979
same,DMBT1 expression level,UP IN GA AND REF ONLY,5.787
same,DTYMK expression level,UP IN GA AND REF ONLY,10.17
same,EG386506 expression level,UP IN GA AND REF ONLY,5.743
same,EG666756 expression level,UP IN GA AND REF ONLY,10.78
same,EIF3B expression level,UP IN GA AND REF ONLY,6.383
same,EIF4E3 expression level,UP IN GA AND REF ONLY,8.882
same,ELAC2 expression level,UP IN GA AND REF ONLY,6.351
same,ELF1 expression level,UP IN GA AND REF ONLY,10.44
same,EP5TI1 expression level,UP IN GA AND REF ONLY,8.281
same,ETS1 expression level,UP IN GA AND REF ONLY,7.811
same,F830048D03RIK expression level,UP IN GA AND REF ONLY,6.799
same,FANCA expression level,UP IN GA AND REF ONLY,5.606
same,FBXO33 expression level,UP IN GA AND REF ONLY,8.898
same,FEM1C expression level,UP IN GA AND REF ONLY,8.076
same,FERD3L expression level,UP IN GA AND REF ONLY,5.887
